Literature values as cited in PMC8878452, “A Tale of Toxin Promiscuity: The Versatile Pharmacological Effects of Hcr 1b-2 Sea Anemone Peptide on Voltage-Gated Ion Channels” (Marine Drugs, 2022).
“Also recorded” adds a separate entry of the source. Like-named read-outs stand apart in the source and are kept apart here. Where no end group is shown, it is not given here.

Key:
[1] = tested on: hERG; conditions: cited from earlier work
Source text: APETx1 are known to modulate hERG [21], Nav1.2–1.6, and Nav1.8 [20], while APETx2 modulates ASICs, Kv3.4, [22], and hERG [23], as well as Nav1.2, Nav1.6, and Nav1.8 [20]. APETx3 is known for interacting with Nav1.2–1.4, Nav1.6, DmNav1, BgNav1, and VdNav1 [20]. […] Previous studies have shown that F15, Y32, F33, and L34 seem to be key residues for the interaction between APETx1 and hERG, as they are located on the molecular surface of this peptide. Hcr 1b-2 shares the same residues in its sequence (Figure 1), which can explain the similar effect observed.

[2] = tested on: Nav1.7; conditions: cited from earlier work
Source text: (§1) APETx1 and APETx2 are well-known sea anemone peptides that are characterized as sodium channel modulators. Like Hcr 1b-2, APETx1 inhibits the mammalian Nav1.2–1.6 and Nav1.8 isoforms, while APETx2 acts on Nav1.2, Nav1.6, and Nav1.8.

[3] = tested on: Nav1.1; conditions: cited from earlier work
Source text: as §1

[4] = tested on: Nav1.4; conditions: cited from earlier work
Source text: (§2) APETx1 are known to modulate hERG [21], Nav1.2–1.6, and Nav1.8 [20], while APETx2 modulates ASICs, Kv3.4, [22], and hERG [23], as well as Nav1.2, Nav1.6, and Nav1.8 [20]. APETx3 is known for interacting with Nav1.2–1.4, Nav1.6, DmNav1, BgNav1, and VdNav1 [20]. […] Like Hcr 1b-2, APETx1 inhibits the mammalian Nav1.2–1.6 and Nav1.8 isoforms, while APETx2 acts on Nav1.2, Nav1.6, and Nav1.8.

[5] = tested on: Nav1.5; conditions: cited from earlier work
Source text: as §2

[6] = tested on: Nav1.2; conditions: cited from earlier work
Source text: as §2

[7] = tested on: Nav1.8; conditions: cited from earlier work
Source text: as §2

[8] = tested on: Nav1.3; conditions: cited from earlier work
Source text: as §2

[9] = tested on: Nav1.6; conditions: cited from earlier work
Source text: as §2

[10] = tested on: BgNav1; conditions: cited from earlier work; for effect on insect channel BgNav: printed BgNav
Source text: as §2

[11] = tested on: Nav channels; conditions: cited from earlier work
Source text: as §1

[12] = tested on: ASIC; design: method as in 2 sources, one per row (each row's own in cited_ref): ref 17 = [17]; PMID 29684594; doi:10.1016/j.peptides.2018.04.013; 17. Kalina R. Gladkikh I. Dmitrenok P. Chernikov O. Koshelev S. Kvetkina A. Kozlov S. Kozlovskaya E. Monastyrnaya M. New APETx-like peptides from sea anemone Heteractis crispa modulate ASIC1a channels ||| ref 22 = [22]; PMID 15044953; doi:10.1038/sj.emboj.7600177; 22. Diochot S. Baron A. Rash L.D. Deval E. Escoubas P. Scarzello S. Salinas M. Lazdunski M. A new sea anemone peptide, APETx2, inhibits ASIC3, a major acid-sensitive channel in sensory neurons EMBO J.; conditions: cited from earlier work
[13] = tested on: Kv3.4; design: method as in 2 sources, ref 22 = [22]; PMID 15044953; doi:10.1038/sj.emboj.7600177; 22. Diochot S. Baron A. Rash L.D. Deval E. Escoubas P. Scarzello S. Salinas M. Lazdunski M. A new sea anemone peptide, APETx2, inhibits ASIC3, a major acid-sensitive channel in sensory neurons EMBO J. ||| ref 33 = [33]; PMID 16177043; doi:10.1523/JNEUROSCI.2119-05.2005; 33. Yeung S.Y. Thompson D. Wang Z. Fedida D. Robertson B. Modulation of Kv3 subfamily potassium currents by the sea anemone toxin BDS: Significance for CNS and biophysical studies J. Neurosci. 2005 25; conditions: cited from earlier work
[14] = tested on: TTX-sensitive channels; conditions: cited from earlier work
Source text: (§3) The only targets in which Hcr 1b-2 was not active were Kv3.1 and Kv10.1 (Figure 2 and Figure 3). Among sea anemone toxins, BDS-I, from Anemonia sulcata, is a well-characterized toxin capable of inhibiting isoforms from the Kv3 family, being active on Kv3.1, Kv3.2, and Kv3.4 [33].

[15] = tested on: Kv3.2; conditions: cited from earlier work
Source text: as §3

[16] = tested on: Kv3.1; conditions: cited from earlier work
Source text: as §3

[17] = tested on: TTX-resistant isoforms; conditions: cited from earlier work
Source text: as §3

[18] = tested on: Kv1.3; conditions: cited from earlier work
Source text: (§4) APETx1 are known to modulate hERG [21], Nav1.2–1.6, and Nav1.8 [20], while APETx2 modulates ASICs, Kv3.4, [22], and hERG [23], as well as Nav1.2, Nav1.6, and Nav1.8 [20]. APETx3 is known for interacting with Nav1.2–1.4, Nav1.6, DmNav1, BgNav1, and VdNav1 [20].

[19] = tested on: Kv2.1; conditions: cited from earlier work
Source text: as §4

[20] = tested on: Kv1.4; conditions: cited from earlier work
Source text: as §4

[21] = tested on: Kv1.5; conditions: cited from earlier work
Source text: as §4

[22] = tested on: Kv10.1; conditions: cited from earlier work
[23] = tested on: VdNav1; conditions: cited from earlier work
Source text: as §4

[24] = tested on: DmNav1; conditions: cited from earlier work
Source text: as §4

| Substance | effect on hERG [1] | effect on Nav1.7 [2] | effect on Nav1.1 [3] | effect on Nav1.4 [4] | effect on Nav1.5 [5] | effect on Nav1.2 [6] | effect on Nav1.8 [7] | effect on Nav1.3 [8] | effect on Nav1.6 [9] | effect on insect channel BgNav [10] | effect on Kv3.4 [13] | also measured |
| --- | --- | --- | --- | --- | --- | --- | --- | --- | --- | --- | --- | --- |
| APETx1: APETx family peptide from Anthopleura elegantissima, UniProt P61541 (GTTCYCGKTIGIYWFGTKTCPSNRGYTGSCGYFLGICCYPVD; ends and bridges not checked; cysteine pairing not given here; UniProt P61541 1-42, looked up) | modulate | unaffected | unaffected | modulate; also recorded: inhibits | modulate; also recorded: inhibits | modulate; also recorded: inhibits | modulate; also recorded: inhibits | modulate; also recorded: inhibits | modulate; also recorded: inhibits | unaffected |  |  |
| APETx2: APETx family peptide from Anthopleura elegantissima, UniProt P61542 (GTACSCGNSKGIYWFYRPSCPTDRGYTGSCRYFLGTCCTPAD; ends and bridges not checked; cysteine pairing not given here; UniProt P61542 1-42, looked up) | modulates | unaffected | unaffected |  |  | modulates; also recorded: acts on | modulates; also recorded: acts on |  | modulates; also recorded: acts on | unaffected | modulates | modulation of voltage-dependence of Nav channels [11]: did not modulate the voltage-dependence; effect on ASICs [12]: modulates |
| BDS-I: toxin from Anemonia sulcata, UniProt P11494 (AAPCFCSGKPGRGDLWILRGTCPGGYGYTSNCYKWPNICCYPH; UniProt P11494 1-43, looked up) |  |  |  |  |  |  |  |  |  |  | active | effect on TTX-sensitive channels [14]: strongly enhances; effect on Kv3.2 [15]: active; effect on Kv3.1 [16]: active; effect on TTX-resistant isoforms [17]: weakly affected |
| APETx4: APETx family peptide from Anthopleura elegantissima, UniProt C0HL40 (GTTCYCGKTIGIYWFGKYSCPTNRGYTGSCPYFLGICCYPVD; ends and bridges not checked; cysteine pairing not given here; UniProt C0HL40 1-42, looked up) |  |  |  | modulates | modulates |  |  |  | modulates |  |  | effect on Kv1.3 [18]: modulates; effect on Kv2.1 [19]: modulates; effect on Kv1.4 [20]: modulates; effect on Kv1.5 [21]: modulates; effect on Kv10.1 [22]: notorious Kv10.1 inhibitor; also recorded: non-selective Kv10.1 inhibitor |
| APETx3: APETx family peptide from Anthopleura elegantissima, UniProt B3EWF9 (GTPCYCGKTIGIYWFGTKTCPSNRGYTGSCGYFLGICCYPVD; ends and bridges not checked; cysteine pairing not given here; UniProt B3EWF9 1-42, looked up) |  |  |  | interacting |  | interacting |  | interacting | interacting |  |  | effect on hERG ([1]; Thr3Pro substitution): abolishes the activity; effect on VdNav1 [23]: interacting; effect on DmNav1 [24]: interacting; effect on BgNav1 [10]: interacting |
